Assay results from US11634452B2, “Compounds for treating neurodegenerative disorders” (ETHNODYNE, priority 2017, dated 2023).
Entries after “also recorded” stand apart in the source; their conditions may differ.

System: primary rat dopaminergic neurons (TH positive neurons) injured with 6-OHDA
Test: Neuroprotective effect following exposure to 6-OHDA, with or without pathway inhibitors
Format: cell-based
Procedure: This study investigated the mode of action of CR777 on rat primary mesencephalic cultures following exposure to 6-OHDA. The effect of CR777 on level of GDNF and BDNF mRNA was investigated after 24 h 6-OHDA incubation and CR777. The main pathways of survival, regulation of the apoptosis and neuronal growth were investigated in presence of CR777 and inhibitors of these different pathways. The following pathways were investigated using antagonists of different proteins of interest: • RAS (small GTPase)/RAF (proto-oncogene Serine/threonine kinase); • Peroxisome proliferator-activated receptor gamma (PPAR-γ) (nuclear receptor) • The Pi3K/AKT/mTor (cell signaling pathway that plays a key role in cellular homeostasis through its role in regulation of apoptosis, cell growth, cell cycle). • NO (nitric oxide) pathway
Rat dopaminergic neurons were cultured as described in Example 4.
On day 6 of culture, the medium was removed and fresh medium was added, without or with 6-OHDA (Sigma, Batch: 083M4624V) at 20 μM diluted in control medium and let for 48 h. In parallel, all inhibitors were solved in culture medium and were added 2 h before the 6-OHDA application (namely 1 h before test compounds application).
CR777 was solved in DMSO at 10 mM, diluted in culture medium and then pre-incubated with mesencephalic neurons 1 hour before the 6-OHDA application (48 h). 6 wells per condition were assessed.
For survival and α-syn aggregation, compound was tested on 1 culture in a 96 well-plate (6 wells per condition), was pre-incubated 1 hour before 6-OHDA and let for 48 hours.
The following conditions were assessed: • Control (culture medium) • +6-OHDA (20 μM, 48 h) • +6-OHDA (20 μM, 48 h)+CR777 1 μM • +6-OHDA (20 μM, 48 h)+CR777 100 nM • +6-OHDA (20 μM, 48 h)+CR777 10 nM • +6-OHDA (20 μM, 48 h)+CR777 1 nM
For pathway investigation, the compound was tested on one primary dopaminergic culture in 96 well plates (6 wells per conditions).
Inhibitors were pre-incubated for 2 hours before 6-OHDA application and CR777 was pre-incubated 1 hour before 6-OHDA application.
The antagonists/inhibitors used in the experiments are the following: • FTS: farnesylthiosalicylic acid selectively disrupts the association of chronically active Ras proteins with the plasma membrane. • BEZ-235: dual PI3K/mTOR inhibitor. • T0070907: selective PPAR-γ antagonist • L-NAME (Nitro-L-arginine methyl ester): precursor to NOS inhibitor, L-NNA—requires bioactivation to become a fully functional inhibitor. • ABT-199: selective inhibitor of Bcl-2.
48 hours after intoxication, the cell culture supernatant was taken off and the dopaminergic neurons were fixed by a solution of 4% paraformaldehyde in PBS, pH=7.3 for 20 min at room temperature.
After permeabilization with 0.1% of saponin, cells were incubated for 2 hours with:
monoclonal Anti-Tyrosine Hydroxylase (TH) antibody produced in mouse at dilution of 1/10000 in PBS containing 1% FCS, 0.1% saponin,
polyclonal anti-α-syn antibody produced in rabbit at dilution of 1/200 for 2 h at room temperature.
For each condition, 20 pictures/well (representative of ˜the all well area) were automatically taken using ImageXpress (Molecular Devices) with 10× magnification. All images were taken with the same conditions. Analysis were automatically performed by using Custom Module Editor (Molecular Devices).
The following endpoint was investigated for each culture well: • The total dopaminergic neuron survival (TH staining), • The total area of α-syn on TH positive neuron (overlapping α-syn/TH)
After permeabilization with 0.1% of saponin, cells were incubated for 2 hours with monoclonal Anti-Tyrosine Hydroxylase (TH) antibody produced in mouse at dilution of 1/10000 in PBS containing 1% FCS, 0.1% saponin, for 2 h at room temperature.
The total dopaminergic neuron survival (TH staining) was investigated for each culture well.

CC1=C(CO)C(=O)O[C@@H]([C@@H](C)[C@H]2CCC3C4C[C@H](SC[C@H](NC(=O)CC[C@@H](N)C(=O)O)C(=O)NCC(=O)O)[C@]5(O)[C@@H](O)C=CC(=O)[C@]5(C)C4CC[C@@]32C)C1 (some centres unmarked) [CR777]
neuroprotective effect (TH neuron survival) in presence of Bcl2 pathway inhibitor (CR777 10 nM + ABT 199 (5 μM), 6-OHDA 20 μM): did not induce any changes | neuroprotective effect (TH neuron survival) in presence of PI3K/AKT/mTOR pathway inhibitor (CR777 10 nM + BEZ235 (40 nM), 6-OHDA 20 μM): fully abolished | neuroprotective effect (TH neuron survival) in presence of Ras/Raf pathway inhibitor (CR777 10 nM + FTS (4 μM), 6-OHDA 20 μM): did not induce any changes | neuroprotective effect (TH neuron survival) in presence of nNOS pathway inhibitor (CR777 10 nM + L-NAME (100 μM), 6-OHDA 20 μM): did not induce any changes | neuroprotective effect (TH neuron survival) in presence of PPARγ pathway inhibitor (CR777 10 nM + T0070907 (1 μM), 6-OHDA 20 μM): no effect was observed | TH positive neuron survival (CR777 10 nM added 1 h before 6-OHDA (20 μM, 48 h), bell shape curve): significantly protected neurons from death; also recorded: significant protective effect; also recorded: able to protect TH positive neurons | α-syn aggregation in TH positive neurons (CR777 10 and 100 nM, 6-OHDA 20 μM, 48 h): able to reduce the aggregation; also recorded: partially protected | dopaminergic neurite network (all concentrations tested (1 nM to 1 μM), 6-OHDA 20 μM, 48 h): significant protective effect
